Reference: patent publication US20250319045A1, “TRANSETHOSOME-ENCAPSULATED AGENTS AND METHODS OF USE THEREOF” (Northwestern University, priority 2024, published 2025)

How the values were obtained:
[1] = Local tolerance and dermal toxicity test, Draize scoring; conditions: after the 7th DNCB dose (third week), 0.05% in 95% ethanol
[2] = Encapsulation efficiency and drug loading by HPLC after ultrafiltration; type: physicochemical; conditions: Z-Endoxifen in transethosomes
Procedure: After cooling the transethosomes to room temperature, the remaining volume was 10 ml. The total drug concentration was determined by HPLC using 20 μL demulsified samples. 200 μL samples were collected into a 30 kDa ultrafiltration tube, added 1 mL of 25% ethanol, ultrafiltrated at 5000 rpm, and the drug concentration of subnatant was determined by HPLC.
Encapsulation efficiency was evaluated by HPLC. HPLC was performed using a WondaSil® C-18-WR column (4.6×150 mm, 5 μm pore size). The mobile phase included an A phase and a B phase at a ratio (A:B) of 30:70. The A phase contained 10 mM ammonium formate in water: 10 mM ammonium formate in methanol. The B phase contained 10 mM ammonium formate in methanol at a ratio of 40:60. Samples were prepared as follows. The solvent was prepared by mixing 10 mM ammonium formate in a solution containing water and acetonitrile at a ratio of 1:1 (v/v). Z-Endoxifen was diluted in the solvent at a concentration gradient of 5, 10, 25, 50, and 80 μg/mL. Samples were injected into the column at a volume of 20 μL and were passed through the column at a flow rate of 0.8 mL/min at a temperate of 30° C. The detection wavelength was 243 nm.
The following equations were used in Table 1: […]

Drug loading (%) [2] [%] | Encapsulation efficiency (%) [2] [%] | Compound | Erythema score (Draize) ([1]; 3 of 10 animals) | Erythema score (Draize) ([1]; remaining 7 animals)
– | – | O=[N+]([O-])c1ccc(Cl)c([N+](=O)[O-])c1 [DNCB, 1-chloro-2,4-dinitrobenzene] | 2 | 1
4.77 | 92.34 | CC/C(=C(\c1ccc(O)cc1)c1ccc(OCCNC)cc1)c1ccccc1 [Z-Endoxifen, (Z)-endoxifen] | – | –
